Test system: vaccinia virus
Test: not given
Type: in vivo, vaccinia virus; ICR female mice
Conditions: 50 mg/kg intraperitoneally 24 hours before inoculation; lesions counted on 8th day

SMILES	Prevention from vaccinia infection (Pock inhibition rate %) [%]
CC(C)=CCCC(C)=CCCC(C)=CCCC(C)=CCCC(C)=CCCC(C)=CCCC(C)=CCCC(C)=CCCC(C)=CCN(CC=C(C)CCC=C(C)CCC=C(C)CCC=C(C)CCC=C(C)CCC=C(C)CCC=C(C)CCC=C(C)CCC=C(C)C)CCCCc1ccccc1	34.1
CC(C)=CCCC(C)=CCCC(C)=CCCC(C)=CCCC(C)=CCCC(C)=CCCC(C)=CCCC(C)=CCCC(C)=CCN(CCO)Cc1ccccc1 [drawing 44]	53.4
CC(C)=CCCC(C)=CCCC(C)=CCCC(C)=CCCC(C)=CCCC(C)=CCCC(C)=CCCC(C)=CCCC(C)=CCN(CCc1ccccc1)CC(O)CNC(C)(C)C (stereo not shown) [drawing 41]	82.9
COc1ccc(CN(CC=C(C)CCC=C(C)CCC=C(C)CCC=C(C)CCC=C(C)CCC=C(C)CCC=C(C)CCC=C(C)CCC=C(C)C)CC=C(C)CCC=C(C)CCC=C(C)CCC=C(C)CCC=C(C)CCC=C(C)CCC=C(C)CCC=C(C)CCC=C(C)C)cc1OC	32.4
CC(C)=CCCC(C)=CCCC(C)=CCCC(C)=CCCC(C)=CCCC(C)=CCCC(C)=CCCC(C)=CCCC(C)=CCN(Cc1ccccc1)Cc1ccccc1 [drawing 43]	50.3
CC(C)=CCCC(C)=CCCC(C)=CCCC(C)=CCCC(C)=CCCC(C)=CCCC(C)=CCCC(C)=CCCC(C)=CCCC(C)=CCN1CCN(Cc2ccccc2)CC1 [drawing 48]	64.0
CC(C)=CCCC(C)=CCCC(C)=CCCC(C)=CCCC(C)=CCCC(C)=CCCC(C)=CCCC(C)=CCCC(C)=CCCC(C)=CCN(CCO)CC(O)c1ccccc1 (stereo not shown) [drawing 38]	60.1
CC(C)=CCCC(C)=CCCC(C)=CCCC(C)=CCCC(C)=CCCC(C)=CCCC(C)=CCCC(C)=CCCC(C)=CCCC(C)=CCN1CCOCCOCCNCCOCCOCC1 [drawing 37]	57.1
COc1ccc(CN(CC=C(C)CCC=C(C)CCC=C(C)CCC=C(C)CCC=C(C)CCC=C(C)CCC=C(C)CCC=C(C)CCC=C(C)CCC=C(C)C)CC=C(C)CCC=C(C)CCC=C(C)CCC=C(C)CCC=C(C)CCC=C(C)CCC=C(C)CCC=C(C)CCC=C(C)CCC=C(C)C)cc1	38.8
CC(C)=CCCC(C)=CCCC(C)=CCCC(C)=CCCC(C)=CCCC(C)=CCCC(C)=CCCC(C)=CCCC(C)=CCN(CCc1ccccc1)CC(O)CN1CCN(CCO)CC1 (stereo not shown) [drawing 42]	85.6
CC(C)=CCCC(C)=CCCC(C)=CCCC(C)=CCCC(C)=CCCC(C)=CCCC(C)=CCCC(C)=CCCC(C)=CCCC(C)=CCN(CCO)Cc1ccccc1 [drawing 49]	38.4

Test system: tumor cells KN7 -8
Test: Anti-tumor activity (survivors on the 30th day)
Type: in vivo, Balb/c male mice
Conditions: 30 mg/kg intraperitoneally 3 times (24 hours before, second and fifth day after inoculation of 5×10^5 cells); survivors/group
Excerpt: Groups, each consisting of Balb/c male mice weighing about 20 g, were intraperitoneally administered 5×10^5 of tumor cells KN7 -8.

SMILES	Anti-tumor activity (Survivor on the 30th day)
CC(C)=CCCC(C)=CCCC(C)=CCCC(C)=CCCC(C)=CCCC(C)=CCCC(C)=CCCC(C)=CCCC(C)=CCCC(C)=CCN1CCOCCOCCNCCOCCOCC1 [drawing 56]	3/6
CC(C)=CCCC(C)=CCCC(C)=CCCC(C)=CCCC(C)=CCCC(C)=CCCC(C)=CCCC(C)=CCCC(C)=CCCC(C)=CCN(Cc1ccccc1)CC(O)CN(CCO)CCO (stereo not shown) [drawing 57]	1/6
CC(C)=CCCC(C)=CCCC(C)=CCCC(C)=CCCC(C)=CCCC(C)=CCCC(C)=CCCC(C)=CCCC(C)=CCN(CCc1ccccc1)CC(O)CN1CCN(CCO)CC1 (stereo not shown) [drawing 59]	4/6
CC(C)=CCCC(C)=CCCC(C)=CCCC(C)=CCCC(C)=CCCC(C)=CCCC(C)=CCCC(C)=CCCC(C)=CCCC(C)=CCN(Cc1ccccc1)CC(O)CNC(C)(C)C (stereo not shown) [drawing 58]	2/6
CC(C)=CCCC(C)=CCCC(C)=CCCC(C)=CCCC(C)=CCCC(C)=CCCC(C)=CCCC(C)=CCCC(C)=CCN(CCCN)CCCN	4/6

Test system: not listed separately
Test: Toxicity, 50% lethal dose, intravenous
Conditions: mouse, in vivo, ddY male mice, read-out: LD50 (Intravenous administration mg/kg)
Excerpt: Using ddY male mice weighing 20-25 g, 50% lethal dose of each test compound intravenously administered was obtained, the results of which are shown in Table 6.

SMILES	LD50 [mg/kg]
CC(C)=CCCC(C)=CCCC(C)=CCCC(C)=CCCC(C)=CCCC(C)=CCCC(C)=CCCC(C)=CCCC(C)=CCN(CCc1ccccc1)CC(O)CNC(C)(C)C (stereo not shown) [drawing 64]	28
CC(C)=CCCC(C)=CCCC(C)=CCCC(C)=CCCC(C)=CCCC(C)=CCCC(C)=CCCC(C)=CCCC(C)=CCN(CCO)Cc1ccccc1 [drawing 66]	791
CC(C)=CCCC(C)=CCCC(C)=CCCC(C)=CCCC(C)=CCCC(C)=CCCC(C)=CCCC(C)=CCCC(C)=CCN(CCc1ccccc1)CC(O)CN1CCN(CCO)CC1 (stereo not shown) [drawing 65]	338
CC(C)=CCCC(C)=CCCC(C)=CCCC(C)=CCCC(C)=CCCC(C)=CCCC(C)=CCCC(C)=CCCC(C)=CCCC(C)=CCN(CCO)CC(O)c1ccccc1 (stereo not shown) [drawing 62]	258
CC(C)=CCCC(C)=CCCC(C)=CCCC(C)=CCCC(C)=CCCC(C)=CCCC(C)=CCCC(C)=CCCC(C)=CCCC(C)=CCN(Cc1ccccc1)CC(O)CN(CCO)CCO (stereo not shown) [drawing 63]	162

Test system: Human interferon (normal diploid cells (fibroblast) originated from human being)
Test: Human interferon inducing activity (in vitro), 3H-uridine-uptake inhibition
Type: cell-based
Conditions: 25 n molar suspension
Experimental: (5) Human interferon inducing activity (in vitro)
Interferon was induced according to the method of Edward A. Havell et al. by treating normal diploid cells (fibroblast) originated from human being with each test compound in the form of ethanol solution diluted with PBS (--), (25 n molar suspension). Using the radioisotope microassay method or H. Ishitsuka et al., interferon was measured in terms of 3H-uridine-uptakeinhibition rate.

SMILES	Human interferon 3H-uridine-uptake inhibition rate (%)
CC(C)=CCCC(C)=CCCC(C)=CCCC(C)=CCCC(C)=CCCC(C)=CCCC(C)=CCCC(C)=CCCC(C)=CCN(CCc1ccccc1)CC(O)CNC(C)(C)C (stereo not shown) [drawing 71]	32.6
CC(C)=CCCC(C)=CCCC(C)=CCCC(C)=CCCC(C)=CCCC(C)=CCCC(C)=CCCC(C)=CCCC(C)=CCCC(C)=CCN1CCN(Cc2ccccc2)CC1 [drawing 78]	3.6
CC(C)=CCCC(C)=CCCC(C)=CCCC(C)=CCCC(C)=CCCC(C)=CCCC(C)=CCCC(C)=CCCC(C)=CCCC(C)=CCN(CCO)CC(O)c1ccccc1 (stereo not shown) [drawing 68]	4.3
CC(C)=CCCC(C)=CCCC(C)=CCCC(C)=CCCC(C)=CCCC(C)=CCCC(C)=CCCC(C)=CCCC(C)=CCCC(C)=CCN(CCO)Cc1ccccc1 [drawing 79]	25.4
CC(C)=CCCC(C)=CCCC(C)=CCCC(C)=CCCC(C)=CCCC(C)=CCCC(C)=CCCC(C)=CCCC(C)=CCCC(C)=CCN(Cc1ccccc1)CC(O)CNC(C)(C)C (stereo not shown) [drawing 70]	59.8
CC(C)=CCCC(C)=CCCC(C)=CCCC(C)=CCCC(C)=CCCC(C)=CCCC(C)=CCCC(C)=CCCC(C)=CCN(CCO)Cc1ccccc1 [drawing 74]	5.1
CC(C)=CCCC(C)=CCCC(C)=CCCC(C)=CCCC(C)=CCCC(C)=CCCC(C)=CCCC(C)=CCCC(C)=CCN(CCc1ccccc1)CC(O)CN1CCN(CCO)CC1 (stereo not shown) [drawing 72]	17.4
CC(C)=CCCC(C)=CCCC(C)=CCCC(C)=CCCC(C)=CCCC(C)=CCCC(C)=CCCC(C)=CCCC(C)=CCN(Cc1ccccc1)Cc1ccccc1 [drawing 73]	4.4
CC(C)=CCCC(C)=CCCC(C)=CCCC(C)=CCCC(C)=CCCC(C)=CCCC(C)=CCCC(C)=CCCC(C)=CCCC(C)=CCN1CCOCCOCCNCCOCCOCC1 [drawing 67]	28.3
COc1ccc(CN(CC=C(C)CCC=C(C)C)CC=C(C)CCC=C(C)C)cc1OC	68.4
CC(C)=CCCC(C)=CCCC(C)=CCCC(C)=CCCC(C)=CCCC(C)=CCCC(C)=CCCC(C)=CCCC(C)=CCCC(C)=CCN(Cc1ccccc1)CC(O)CN(CCO)CCO (stereo not shown) [drawing 69]	61.3

Test system: vaccinia virus (vero cells)
Test: not given
Type: cell-based
Conditions: 50 n molar concentration

SMILES	Anti-vaccinia virus activity (Plaque inhibition rate %) [%]
CC(C)=CCCC(C)=CCCC(C)=CCCC(C)=CCCC(C)=CCCC(C)=CCCC(C)=CCCC(C)=CCCC(C)=CCCC(C)=CCN(CCO)Cc1ccccc1 [drawing 84]	14.1
CC(C)=CCCC(C)=CCCC(C)=CCCC(C)=CCCC(C)=CCCC(C)=CCCC(C)=CCCC(C)=CCCC(C)=CCCC(C)=CCN(Cc1ccccc1)CC(O)CN(CCO)CCO (stereo not shown) [drawing 83]	10.6
